Data: patent US20150011541A1, “PIPECOLATE-SULFONAMIDES FOR TREATMENT OF PSYCHIATRIC DISORDERS” (Max-Planck-Gesellschaft zur Förderung der Wissenschaften …, priority 2011, published 2015)
Read-outs that look alike come from different tables or passages of the source. Blank lines part the entries; values can stand above or below the molecule they belong to.

Legend:
human FKBP52FK1 = biological target: T1, human FKBP52FK1 (Homo sapiens, UniProt Q02790); test: Fluorescence polarization assay, binding to FK1 domain of FKBP52; conditions: for IC50: binding affinity, fluorescence polarization assay; for inhibition at 5 µM: read-out: FKBP52 FK1 % inhibition
T1 sequence (Q02790 50-138 limits assumed): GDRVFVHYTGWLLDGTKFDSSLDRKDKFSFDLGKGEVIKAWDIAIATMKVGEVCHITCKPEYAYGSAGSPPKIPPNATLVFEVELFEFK

human FKBP51FK1 = biological target: T2, human FKBP51FK1 (Homo sapiens, UniProt Q13451); test: Fluorescence polarization assay, binding to FK1 domain of FKBP51; conditions: for IC50: binding affinity, fluorescence polarization assay; for inhibition at 5 µM: read-out: FKBP 51 FK1 % inhibition
T2 sequence (Q13451 42-130 limits assumed): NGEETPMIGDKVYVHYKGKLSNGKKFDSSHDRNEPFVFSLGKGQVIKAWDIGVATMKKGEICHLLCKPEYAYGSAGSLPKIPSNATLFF

[1] = at a concentration of 5 μM, library testing

Molecule: 2-(3-((R)-1-((S)-1-(3-cyanophenylsulfonyl)piperidine-2-carbonyloxy)-3-(3,4-dimethoxyphen-yl)propyl)phenoxy)acetic acid [Compound 6]
IC50 (human FKBP52FK1): 69.9 ± 65.4 µM
IC50 (human FKBP51FK1): 28.5 ± 9.6 µM

Molecule: 2-(3-((R)-1-((S)-1-(benzo[d]thiazol-5-ylsulfonyl)piperidine-2-carbonyloxy)-3-(3,4-dimethoxy phenyl)propyl)phenoxy)acetic acid [Compound 3]
FKBP52 FK1 % inhibition (human FKBP52FK1; [1]): 16.1%
IC50 (human FKBP52FK1): 32.5 ± 3.5 µM
FKBP 51 FK1 % inhibition (human FKBP51FK1; [1]): 25.5%
IC50 (human FKBP51FK1): 11.6 ± 1.1 µM

Molecule: COc1ccc(CC[C@@H](OC(=O)[C@@H]2CCCCN2S(=O)(=O)c2ccc(-c3ncccn3)cc2)c2cccc(OCC(=O)O)c2)cc1OC [Compound 1, 2-(3-((R)-3-(3,4-dimethoxyphenyl)-1-((S)-1-(4-(pyrimidin-2-yl)phenylsulfonyl)piperidine-2-carbonyloxy)propyl)phenoxy)acetic acid]
inhibition at 5 µM (human FKBP52FK1; [1]): 15.2%
inhibition at 5 µM (human FKBP51FK1; [1]): 16.3%
IC50 (human FKBP51FK1): 62.8 ± 10.7 µM

Molecule: COc1ccc(CC[C@@H](OC(=O)[C@@H]2CCCCN2S(=O)(=O)c2cccc(Cl)c2)c2cccc(OCC(=O)O)c2)cc1OC [Compound 2]
IC50 (human FKBP52FK1): 32.8 ± 14.5 µM
inhibition at 5 µM (human FKBP52FK1): 18%
IC50 (human FKBP51FK1): 30.7 ± 15.7 µM
inhibition at 5 µM (human FKBP51FK1): 17.5%

Molecule: COc1ccc(CC[C@@H](OC(=O)[C@@H]2CCCCN2S(=O)(=O)c2cc3ccccc3s2)c2cccc(OCC(=O)O)c2)cc1OC [Compound 5]
inhibition at 5 µM (human FKBP52FK1; [1]): 15.2%
inhibition at 5 µM (human FKBP51FK1; [1]): 12.4%
IC50 (human FKBP51FK1): 67.1 ± 12.1 µM

Molecule: COc1ccc(CC[C@@H](OC(=O)[C@@H]2CCCCN2S(=O)(=O)c2cc(Cl)cc(Cl)c2)c2cccc(OCC(=O)O)c2)cc1OC [Compound 13, 2-(3-((R)-1-((S)-1-(3,5-dichlorophenylsulfonyl)piperidine-2-carbonyloxy)-3-(3,4-dimethoxy-phenyl)propyl)phenoxy)acetic acid]
IC50 (human FKBP52FK1): 14.3 ± 1.8 µM
IC50 (human FKBP51FK1): 22.6 ± 8.2 µM

Molecule: COc1ccc(CC[C@@H](OC(=O)[C@@H]2CCCCN2S(=O)(=O)c2ccc3nc(C)sc3c2)c2cccc(OCC(=O)O)c2)cc1OC [Compound 27, 2-(3-((R)-3-(3,4-dimethoxyphenyl)-1-((S)-1-(2-methylbenzo[d]thiazol-6-ylsulfonyl)piperidine-2-carbonyloxy)propyl)phenoxy)acetic acid]
IC50 (human FKBP52FK1): 26.5 ± 4.9 µM
IC50 (human FKBP51FK1): 18.4 ± 1.4 µM

Molecule: COc1ccc(CC[C@@H](OC(=O)[C@@H]2CCCCN2S(=O)(=O)c2ccc(Cl)cc2)c2cccc(OCC(=O)O)c2)cc1OC [Compound 36, 2-(3-((R)-1-((S)-1-(4-chlorophenylsulfonyl)piperidine-2-carbonyloxy)-3-(3,4-dimethoxyphenyl)propyl)phenoxy)acetic acid]
inhibition at 5 µM (human FKBP52FK1): 15.2%
inhibition at 5 µM (human FKBP51FK1): 11.7%

Molecule: COc1ccc(CC[C@@H](OC(=O)[C@@H]2CCCCN2S(=O)(=O)c2ccc(F)cc2)c2cccc(OCC(=O)O)c2)cc1OC [Compound 38, 2-(3-((R)-3-(3,4-dimethoxyphenyl)-1-((S)-1-(4-fluorophenylsulfonyl)piperidine-2-carbonyloxy)propyl)phenoxy)acetic acid]
inhibition at 5 µM (human FKBP52FK1; [1]): 6.6%
inhibition at 5 µM (human FKBP51FK1; [1]): 4.3%

Molecule: COc1ccc(CC[C@@H](OC(=O)[C@@H]2CCCCN2S(=O)(=O)c2ccc(C(F)(F)F)cc2)c2cccc(OCC(=O)O)c2)cc1OC [Compound 40, 2-(3-((R)-3-(3,4-dimethoxyphenyl)-1-((S)-1-(4-(trifluoromethyl)phenylsulfonyl)piperidine-2-carbonyloxy)propyl)phenoxy)acetic acid]
inhibition at 5 µM (human FKBP52FK1; [1]): 12.3%
inhibition at 5 µM (human FKBP51FK1; [1]): 8.9%

Molecule: COc1ccc(CC[C@@H](OC(=O)[C@@H]2CCCCN2S(=O)(=O)c2ccc(Oc3ccccc3)cc2)c2cccc(OCC(=O)O)c2)cc1OC [Compound 41, 2-(3-((R)-3-(3,4-dimethoxyphenyl)-1-((S)-1-(4-phenoxyphenylsulfonyl)piperidine-2-carbonyloxy)propyl)phenoxy)acetic acid]
inhibition at 5 µM (human FKBP52FK1; [1]): 15.2%
inhibition at 5 µM (human FKBP51FK1; [1]): 7.2%

Molecule: COc1ccc(CC[C@@H](OC(=O)[C@@H]2CCCCN2S(=O)(=O)c2cccnc2)c2cccc(OCC(=O)O)c2)cc1OC [Compound 42, 2-(3-((R)-3-(3,4-dimethoxyphenyl)-1-((S)-1-(pyridin-3-ylsulfonyl)piperidine-2-carbonyloxy)propyl)phenoxy)acetic acid]
inhibition at 5 µM (human FKBP52FK1): 9.5%
inhibition at 5 µM (human FKBP51FK1): 6.6%

Molecule: COc1ccc(CC[C@@H](OC(=O)[C@@H]2CCCCN2S(=O)(=O)c2ccc(Oc3ccccc3)nc2)c2cccc(OCC(=O)O)c2)cc1OC [Compound 43, 2-(3-((R)-3-(3,4-dimethoxyphenyl)-1-((S)-1-(6-phenoxypyridin-3-ylsulfonyl)piperidine-2-carbonyloxy)propyl)phenoxy)acetic acid]
inhibition at 5 µM (human FKBP52FK1; [1]): 11.4%
inhibition at 5 µM (human FKBP51FK1; [1]): 3.7%

Molecule: COc1ccc(CC[C@@H](OC(=O)[C@@H]2CCCCN2S(=O)(=O)c2ccc(-c3ccccc3)nc2)c2cccc(OCC(=O)O)c2)cc1OC [Compound 44, 2-(3-((R)-3-(3,4-dimethoxyphenyl)-1-((S)-1-(6-phenylpyridin-3-ylsulfonyl)piperidine-2-carbonyloxy)propyl)phenoxy)acetic acid]
inhibition at 5 µM (human FKBP52FK1; [1]): 8.5%
inhibition at 5 µM (human FKBP51FK1; [1]): 2.6%

Further lines, results first:

IC50 (human FKBP52FK1): 37.3 ± 13.6 µM
IC50 (human FKBP51FK1): 18.2 ± 8.8 µM
Molecule: COc1ccc(CC[C@@H](OC(=O)[C@@H]2CCCCN2S(=O)(=O)c2cccc(F)c2)c2cccc(OCC(=O)O)c2)cc1OC [Compound 11, 2-(3-((R)-3-(3,4-dimethoxyphenyl)-1-((S)-1-(3-fluorophenylsulfonyl)piperidine-2-carbonyloxy)propyl)phenoxy)acetic acid]

IC50 (human FKBP52FK1): 17.1 ± 11 µM
IC50 (human FKBP51FK1): 3.06 ± 0.25 µM
Molecule: COc1ccc(CC[C@@H](OC(=O)[C@@H]2CCCCN2S(=O)(=O)c2cccc(Br)c2)c2cccc(OCC(=O)O)c2)cc1OC [Compound 12, 2-(3-((R)-1-((S)-1-(3-bromophenylsulfonyl)piperidine-2-carbonyloxy)-3-(3,4-dimethoxyphenyl)propyl)phenoxy)acetic acid]

IC50 (human FKBP52FK1): 20.2 ± 3.5 µM
IC50 (human FKBP51FK1): 18.8 ± 2.4 µM
Molecule: COc1ccc(S(=O)(=O)N2CCCC[C@H]2C(=O)O[C@H](CCc2ccc(OC)c(OC)c2)c2cccc(OCC(=O)O)c2)cc1Cl [Compound 16, 2-(3-((R)-1-((S)-1-(3-chloro-4-methoxyphenylsulfonyl)piperidine-2-carbonyloxy)-3-(3,4-dimethoxyphenyl)propyl)phenoxy)aceticacid]

IC50 (human FKBP52FK1): 56.6 ± 12.2 µM
IC50 (human FKBP51FK1): 15.1 ± 1.4 µM
Molecule: COc1ccc(CC[C@@H](OC(=O)[C@@H]2CCCCN2S(=O)(=O)c2cc(Cl)c(O)c(Cl)c2)c2cccc(OCC(=O)O)c2)cc1OC [Compound 21, 2-(3-((R)-1-((S)-1-(3,5-dichloro-4-hydroxyphenylsulfonyl)piperidine-2-carbonyloxy)-3-(3,4-dimethoxyphenyl)propyl)phenoxy)acetic acid]

IC50 (human FKBP52FK1): 17.7 ± 1.6 µM
IC50 (human FKBP51FK1): 16.4 ± 1.7 µM
Molecule: COc1ccc(CC[C@@H](OC(=O)[C@@H]2CCCCN2S(=O)(=O)c2cc(Cl)c(OC)c(Cl)c2)c2cccc(OCC(=O)O)c2)cc1OC [Compound 22, 2-(3-((R)-1-((S)-1-(3,5-dichloro-4-methoxyphenylsulfonyl)piperidine-2-carbonyloxy)-3-(3,4-dimethoxyphenyl)propyl)phenoxy)acetic acid]

IC50 (human FKBP52FK1): 15.6 ± 2.2 µM
IC50 (human FKBP51FK1): 8.9 ± 0.9 µM
Molecule: COc1ccc(CC[C@@H](OC(=O)[C@@H]2CCCCN2S(=O)(=O)c2cc(Cl)c(NC(C)=O)c(Cl)c2)c2cccc(OCC(=O)O)c2)cc1OC [Compound 23, 2-(3-((R)-1-((S)-1-(4-acetamido-3,5-dichlorophenylsulfonyl)piperidine-2-carbonyloxy)-3-(3,4-dimethoxyphenyl)propyl)phenoxy)acetic acid]

IC50 (human FKBP52FK1): 43.9 ± 10.1 µM
IC50 (human FKBP51FK1): 27.2 ± 3.1 µM
Molecule: COc1ccc(CC[C@@H](OC(=O)[C@@H]2CCCCN2S(=O)(=O)c2cc3c(c([N+](=O)[O-])c2)OCC3)c2cccc(OCC(=O)O)c2)cc1OC [Compound 25, 2-(3-((R)-3-(3,4-dimethoxyphenyl)-1-((S)-1-(7-nitro-2,3-dihydrobenzofuran-5-ylsulfonyl)piperidine-2-carbonyloxy)propyl)phenoxy)acetic acid]

IC50 (human FKBP52FK1): 66.5 ± 27.1 µM
IC50 (human FKBP51FK1): 14.7 ± 1.1 µM
Molecule: COc1ccc(CC[C@@H](OC(=O)[C@@H]2CCCCN2S(=O)(=O)c2ccc3[nH]c(=O)sc3c2)c2cccc(OCC(=O)O)c2)cc1OC [Compound 28, 2-(3-((R)-3-(3,4-dimethoxyphenyl)-1-((S)-1-(2-oxo-2,3-dihydrobenzo[d]thiazol-6-ylsulfonyl)piperidine-2-carbonyloxy)propyl)phenoxy)aceticacid]

IC50 (human FKBP52FK1): 0.71 ± 0.1 µM
IC50 (human FKBP51FK1): 0.456 ± 0.05 µM
Molecule: COc1ccc(CC[C@@H](OC(=O)[C@@H]2CCCCN2S(=O)(=O)c2cc(Cl)c(O)c(Cl)c2)c2cccc(OCCN3CCOCC3)c2)cc1OC [Compound 33, (S)-((R)-3-(3,4-dimethoxyphenyl)-1-(3-(2-morpholinoethoxy)phenyl)propyl)1-(3,5-dichloro-4-hydroxyphenylsulfonyl)piperidine-2-carboxylate]

IC50 (human FKBP52FK1): 8.3 ± 6.8 µM
IC50 (human FKBP51FK1): 12.3 ± 18.9 µM
Molecule: COc1ccc(CC[C@@H](OC(=O)[C@@H]2CCCCN2S(=O)(=O)c2cc(Cl)c(NC(C)=O)c(Cl)c2)c2cccc(OCCN3CCOCC3)c2)cc1OC [Compound 34, (S)-((R)-3-(3,4-dimethoxyphenyl)-1-(3-(2-morpholinoethoxy)phenyl)propyl)1-(4-acetamido-3,5-dichlorophenylsulfonyl)piperidine-2-carboxylate]

IC50 (human FKBP52FK1): 2.5 ± 0.38 µM
IC50 (human FKBP51FK1): 1.3 ± 0.13 µM
Molecule: COc1ccc(CC[C@@H](OC(=O)[C@@H]2CCCCN2S(=O)(=O)c2ccc3[nH]c(=O)sc3c2)c2cccc(OCCN3CCOCC3)c2)cc1OC [Compound 35, (S)-((R)-3-(3,4-dimethoxyphenyl)-1-(3-(2-morpholinoethoxy)phenyl)propyl)1-(2-oxo-2,3-dihydrobenzo[d]thiazol-6-ylsulfonyl)piperidine-2-carboxylate]
